Consider 10 compounds from US8198295B2, “Benzonaphthyridines” (Nycomed GmbH, priority 2002, dated 2012).

Test [1] addresses PDE4 (cAMP-specific), cytosol of human polymorphonuclear leukocytes (PMNL). Kind of test: Inhibition of PDE isoenzymes: PDE4. In kind it is biochemical. The conditions noted are these: cAMP as substrate, motapizone (1 μM) present. How it is done: (§1) The PDE activity was determined according to Thompson et al. (Adv Cycl Nucl Res 10: 69-92, 1979) with some modifications (Bauer and Schwabe, Naunyn-Schmiedeberg's Arch Pharmacol 311: 193-198, 1980). The test samples contained 20 mM Tris (pH 7.4), 5 mM MgCl2, 0.5 μM CAMP or CGMP, [^3H]cAMP or [^3H]cGMP (about 30 000 cpm/sample), the PDE isoenzyme-specific additives described in greater detail below, the Indicated concentrations of inhibitor and an aliquot of the enzyme solution in a total sample volume of 200 μl. Dilution series of the compounds according to the invention were prepared in DMSO and further diluted in the samples [1:100 (v/v)], to give the desired end concentration of the inhibitors at a DMSO concentration of 1% (vN), which for its part has only a minute effect on PDE activity.
(§2) After preincubation at 37° C. for 5 minutes, the reaction was started by addition of the substrate (CAMP or cGMP). The samples were incubated at 37° C. for a further 15 min. The reaction was terminated by addition of 50 μl 0.2 N HCl. After cooling on ice for 10 minutes and addition of 25 μg 5′-nucleotidase (snake venom from Crotalus atrox), the mixture was again incubated at 37° C. for 10 min and the samples were then applied to QAE Sephadex A-25 columns (sample volume 1 ml). The columns were eluted with 2 ml of 30 mM ammonium formate (pH 6.0). The radioactivity of the eluate was measured and corrected by the corresponding blank values (measured in the presence of denatured protein); the blank values were less than 5% of the total radioactivity. In no case did the proportion of hydrolyzed nucleotide exceed 30% of the original substrate concentration.
PDE4 (cAMP-specific) was investigated in the cytosol of human polymorphonuclear leukocytes (PMNL) [isolated from leukocyte concentrates, see Schudt et al., Arch Pharmacol 1991: 344, 682-690] using CAMP as substrate. The PDE3 inhibitor motapizone (1 μM) was used to suppress the PDE3 activity emanating from contaminated platelets.
(§3) The IC50 values were determined from the concentration-inhibition curves by nonlinear regression.

Test [2] deals with T1, PDE3 (cGMP-inhibited), homogenates of human platelets (Homo sapiens, UniProt Q14432).
T1 construct: from tissue; host or cells: homogenates of human platelets
As to the kind of experiment: Inhibition of PDE isoenzymes: PDE3. In kind it is biochemical. How it is done:
as §1, §2
PDE3 (cGMP-inhibited) was investigated in homogenates of human platelets (see Schudt et al., Biochem Pharmacol 1991: 42, 153-162) using CAMP or cGMP as substrate.
as §3

Setting [3] is: homogenates of human platelets, cAMP or cGMP as substrate, read-out: PDE3 [−log IC50, mol/l] (converted).

Where a name gives a salt, the structure may show the parent alone. Read-outs that look alike come from different tables or passages of the source.

T1 sequence (Q14432 whole entry): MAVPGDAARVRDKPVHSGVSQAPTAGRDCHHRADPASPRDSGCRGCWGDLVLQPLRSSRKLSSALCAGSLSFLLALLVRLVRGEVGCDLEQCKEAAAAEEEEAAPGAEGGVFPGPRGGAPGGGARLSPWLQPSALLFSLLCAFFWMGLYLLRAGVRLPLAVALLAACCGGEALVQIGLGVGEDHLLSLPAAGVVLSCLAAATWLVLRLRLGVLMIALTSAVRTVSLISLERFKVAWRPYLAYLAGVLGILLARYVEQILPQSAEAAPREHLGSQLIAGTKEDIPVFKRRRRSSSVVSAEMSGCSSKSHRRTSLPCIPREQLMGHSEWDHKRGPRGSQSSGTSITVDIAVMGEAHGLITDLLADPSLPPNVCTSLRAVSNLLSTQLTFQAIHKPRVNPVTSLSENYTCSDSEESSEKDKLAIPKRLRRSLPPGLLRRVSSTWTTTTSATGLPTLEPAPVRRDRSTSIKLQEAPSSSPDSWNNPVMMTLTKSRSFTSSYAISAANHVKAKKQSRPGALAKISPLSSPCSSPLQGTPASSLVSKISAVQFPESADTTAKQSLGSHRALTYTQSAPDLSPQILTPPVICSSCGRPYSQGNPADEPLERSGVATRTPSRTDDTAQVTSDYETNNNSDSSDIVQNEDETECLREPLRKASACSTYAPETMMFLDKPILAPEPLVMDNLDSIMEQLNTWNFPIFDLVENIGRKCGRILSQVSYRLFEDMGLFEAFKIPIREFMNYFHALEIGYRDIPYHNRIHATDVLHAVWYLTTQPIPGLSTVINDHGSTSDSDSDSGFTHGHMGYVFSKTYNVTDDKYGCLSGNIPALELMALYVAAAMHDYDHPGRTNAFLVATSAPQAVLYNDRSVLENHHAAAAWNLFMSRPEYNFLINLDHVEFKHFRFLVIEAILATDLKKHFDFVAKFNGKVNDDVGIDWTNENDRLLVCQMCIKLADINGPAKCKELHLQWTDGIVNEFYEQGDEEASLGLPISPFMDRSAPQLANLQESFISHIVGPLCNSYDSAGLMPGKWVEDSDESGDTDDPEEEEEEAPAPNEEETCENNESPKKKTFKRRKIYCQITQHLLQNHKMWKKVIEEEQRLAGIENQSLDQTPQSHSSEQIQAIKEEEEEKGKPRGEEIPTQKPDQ

Regarding `CCOc1cc2c(cc1OC)C(c1ccc(C(=O)N(C(C)C)[C@@H](C)COC(C)=O)cc1)=N[C@@H]1CCN(C)C[C@H]21` [Compound 5, Acetic acid (S-2-({1-[4-((4aR,10bS)-9-ethoxy-8-methoxy-2-methyl-1,2,3,4,4a,10b-hexahydro-benzo[c][1,6]naphthyyrdin-6-yl)-phenyl]-methanoyl}-isopropyl-amino)-propyl esterdihydrochloride], the “PDE4 [−log IC50, mol/l]” value in test [1] is reported as 9.2 −log IC50, mol/l. The IC50 in test [2] (setting [3]) is 79.4 nM.

For `CCOc1cc2c(cc1OC)C(c1ccc(C(=O)N(C(C)C)[C@@H](C)COC(=O)c3ccc(OC)c(OC)c3)cc1)=N[C@@H]1CCN(C)C[C@H]21` [Compound 3, 3,4-Dimethoxy-benzoic acid(S)2-({1-[4-((4aR,10bS)-9-ethoxy-8-methoxy-2-methyl-1,2,3,4,4a,10b-hexahdro-benzo[c][1,6]naphthyridin-6-yl)-phenyl]-methanoyl}-isopropyl-amino)-propyl ester], in test [1], the “PDE4 [−log IC50, mol/l]” value is 9.4 −log IC50, mol/l. Besides, in test [2] (setting [3]), the IC50 was 31.6 nM.

As for `CCOc1cc2c(cc1OC)C(c1ccc(C(=O)N(C(C)C)[C@@H](C)COC(=O)c3cc(OC)cc(OC)c3)cc1)=N[C@@H]1CCN(C)C[C@H]21` [Compound 4], the “PDE4 [−log IC50, mol/l]” value in test [1] is listed as 9.3 −log IC50, mol/l. The IC50 in test [2] (setting [3]) is 39.8 nM.

Take `CCOc1cc2c(cc1OC)C(c1ccc(C(=O)N(C(C)C)C(C)CCOC(=O)Cc3ccccc3)cc1)=N[C@@H]1CCN(C)C[C@H]21` (stereo partly drawn) [Compound 7, Phenyl-acetic acid 3-({1-[4((4aR,10bS)-9-ethoxy-8-methoxy-2-methyl-1,2,3,4,4a,10b-hexahydro-benzo[c][1,6]naphthyridin-6-yl)-phenyl]-methanoyl}-isopropyl-amino)-butyl ester]: in test [1], the “PDE4 [−log IC50, mol/l]” value is 9.6 −log IC50, mol/l. The compound further showed an IC50 in test [2] of 31.6 nM.

For `CCOc1cc2c(cc1OC)C(c1ccc(C(=O)N(C(C)C)C(C)CCOC(=O)c3ccccc3)cc1)=N[C@@H]1CCN(C)C[C@H]21` (stereo partly drawn) [Compound 6, Benzoic acid 3-({1-[4-((4aR,10bS)-9-ethoxy-8-methoxy-2-methyl-1,2,3,4,4a,10b-hexahydro-benzo[c][1,6]naphthyridin-6-yl)-phenyl]-methanoyl}-isopropyl-amino)-butyl ester], the “PDE4 [−log IC50, mol/l]” value in test [1] is recorded as 9.2 −log IC50, mol/l. Further, in test [2] (setting [3]), the IC50 was 100 nM.

Consider `CCOc1cc2c(cc1OC)C(c1ccc(C(=O)N(C(C)C)[C@@H](C)CO)cc1)=N[C@@H]1CCN(C)C[C@H]21` [Compound 11], for which the “PDE4 [−log IC50, mol/l]” value in test [1] is 8.9 −log IC50, mol/l. Moreover, the IC50 in test [2] (setting [3]) was 79.4 nM.

Regarding `CCOc1cc2c(cc1OC)C(c1ccc(C(=O)N(C(C)C)[C@@H](C)COC(=O)Cc3ccccc3)cc1)=N[C@@H]1CCN(C)C[C@H]21` [Compound 1, Phenyl-acetic acid (S)-2-({1-[4-((4aR,10bS)-9-ethoxy-8-methoxy-2-methyl-1,2,3,4a,10b-hexahydro-benzo[c][1,6]naphthyridin-6-yl)-phenyl]-methanoyl}-isopropyl-amino)-propyl ester], the “PDE4 [−log IC50, mol/l]” value in test [1] was 9.8 −log IC50, mol/l. This compound also showed an IC50 in test [2] of 50.1 nM.

As to `CCOc1cc2c(cc1OC)C(c1ccc(C(=O)N(C(C)C)[C@H](C)CO)cc1)=N[C@@H]1CCN(C)C[C@H]21` [Compound 12], the “PDE4 [−log IC50, mol/l]” value in test [1] is on record as 8.8 −log IC50, mol/l. In addition, the IC50 in test [2] (setting [3]) is 79.4 nM.

Take `CCOc1cc2c(cc1OC)C(c1ccc(C(=O)N(C(C)C)[C@@H](C)COC(=O)c3ccccc3)cc1)=N[C@@H]1CCN(C)C[C@H]21` [Compound 2]: the “PDE4 [−log IC50, mol/l]” value in test [1] is 9 −log IC50, mol/l. Also, the IC50 in test [2] (setting [3]) is 25.1 nM.

For `CCOc1cc2c(cc1OC)C(c1ccc(C(=O)N(C(C)C)C(C)CCOC(=O)Cc3ccc(OC)c(OC)c3)cc1)=N[C@@H]1CCN(C)C[C@H]21` (stereo partly drawn) [Compound 8, (3.4-Dimethoxy-phenyl)-acetic acid 3-({1-[4-((4aR,10bS)-9-ethoxy-8-methoxy-2-methyl-1,2,3,4,4a.10b-hexahydro-benzo[c][1,6]naphthyridin-6-yl)-phenyl]-methanoyl}-isopropyl-amino)-butyl ester], the “PDE4 [−log IC50, mol/l]” value in test [1] is reported as 9.6 −log IC50, mol/l. In test [2] (setting [3]), the IC50 was 50.1 nM.
